Values quoted from earlier work in patent US6673373B2, “Antifungal formulation and the methods for manufacturing and using the same” (Carlsbad Technology Inc., priority 2001, dated 2004).

Experiments:
[1] = not given; remark: listed apart in the source
[2] = not given; remark: listed apart in the source

hydroxy-itraconazole
antifungal activity in vitro: demonstrated in vitro to have antifungal activity

CCC(C)n1ncn(-c2ccc(N3CCN(c4ccc(OC[C@H]5CO[C@](Cn6cncn6)(c6ccc(Cl)cc6Cl)O5)cc4)CC3)cc2)c1=O (mixture of isomers) [itraconazole, (±)-cis-4-[4-[4-[4-[[2-(2,4-dichlorophenyl)-2-(1H-1,2,4-triazol-1-ylmethyl)-1,3-dioxolan-4-yl]methoxy]phenyl]-1-piperazinyl]phenyl]-2,4-dihydro-2-(1-methylpropyl)-3H-1,2,4-triazol-3-one]
solubility in water [1]: less than 1 μg/ml
binding rate with plasma proteins (plasma proteins): 99.8%
time to reach peak concentration in plasma ([2]; after taken by the patients): 3 to 4 h
concentration in blood as % of that in plasma ([2]; in vivo): about 60%
itraconazole in its original form excreted in feces ([2]; in vivo): 3-18%
itraconazole in its original form secreted in urine ([2]; in vivo): ≤ 0.03%
plasma half life ([2]; in vivo): 24 to 36 h
itraconazole metabolites secreted in urine ([2]; within a week after the uptake of the drug): About 35%
